Test results taken from the supplement of paper PMC10307832.

Columns and labels:
Test in all cases: relative viability (nuclei count vs DMSO), 5 days (fraction); higher = more cells survive
NCI-H2009 = tested on: NCI-H2009
Procedure, shortened: (§1)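 Lung cancer cell lines, seeded in 1536-well plates, were treated the following day by pin tool with a single drug or with five library-drug doses (not always all listed) in √10 steps on top of a fixed anchor-drug dose. Cells were fixed and nuclei stained in one step after 5 days, and nuclei were counted. Relative viability is the nuclei count for treated wells divided by that for vehicle wells, reported as medians of duplicate plates.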

NCI-H2085 = tested on: NCI-H2085
Procedure, shortened: as §1

LU99A = tested on: LU99A
Procedure, shortened: as §1

NCI-H650 = tested on: NCI-H650
Procedure, shortened: as §1

NCI-H460 = tested on: NCI-H460
Procedure, shortened: as §1

NCI-H2126 = tested on: NCI-H2126
Procedure, shortened: as §1

HARA = tested on: HARA
Procedure, shortened: as §1

NCI-H1993 = tested on: NCI-H1993
Procedure, shortened: as §1

LC-2-ad = tested on: LC-2-ad
Procedure, shortened: as §1

NCI-H838 = tested on: NCI-H838
Procedure, shortened: as §1

HCC-78 = tested on: HCC-78
Procedure, shortened: as §1

EPLC-272H = tested on: EPLC-272H
Procedure, shortened: as §1

NCI-H2347 = tested on: NCI-H2347
Procedure, shortened: as §1

UMC-11 = tested on: UMC-11
Procedure, shortened: as §1

SW 1573 = tested on: SW 1573
Procedure, shortened: as §1

PC-14 = tested on: PC-14
Procedure, shortened: as §1

NCI-H1915 = tested on: NCI-H1915
Procedure, shortened: as §1

ABC-1 = tested on: ABC-1
Procedure, shortened: as §1

COR-L23 = tested on: COR-L23
Procedure, shortened: as §1

NCI-H1651 = tested on: NCI-H1651
Procedure, shortened: as §1

HCC-15 = tested on: HCC-15
Procedure, shortened: as §1

NCI-H358 = tested on: NCI-H358
Procedure, shortened: as §1

Clc1ccc(Nc2nnc(Cc3ccncc3)c3ccccc23)cc1 [Vatalanib] + Cc1nc(NC(=O)N2CCC[C@H]2C(N)=O)sc1-c1ccnc(C(C)(C)C(F)(F)F)c1 [Alpelisib] (partner 2 µM)
relative viability (NCI-H2009; first compound 0.04 µM): 1.14 | relative viability (NCI-H2009; first compound 0.1265 µM): 1.07 | relative viability (NCI-H2009; first compound 0.4 µM): 1.2 | relative viability (NCI-H2009; first compound 1.265 µM): 1.13 | relative viability (NCI-H2009; first compound 4 µM): 1.22 | relative viability (NCI-H2085; first compound 0.04 µM): 0.923 | relative viability (NCI-H2085; first compound 0.1265 µM): 0.94 | relative viability (NCI-H2085; first compound 0.4 µM): 1.04 | relative viability (NCI-H2085; first compound 1.265 µM): 0.97 | relative viability (NCI-H2085; first compound 4 µM): 0.893 | relative viability (LU99A; first compound 0.04 µM): 0.541 | relative viability (LU99A; first compound 0.1265 µM): 0.514 | relative viability (LU99A; first compound 0.4 µM): 0.531 | relative viability (LU99A; first compound 1.265 µM): 0.503 | relative viability (LU99A; first compound 4 µM): 0.575 | relative viability (NCI-H650; first compound 0.04 µM): 1.24 | relative viability (NCI-H650; first compound 0.1265 µM): 0.936 | relative viability (NCI-H650; first compound 1.265 µM): 1.06 | relative viability (NCI-H650; first compound 4 µM): 1.13 | relative viability (NCI-H460; first compound 0.04 µM): 0.512 | relative viability (NCI-H460; first compound 0.1265 µM): 0.392 | relative viability (NCI-H460; first compound 0.4 µM): 0.654 | relative viability (NCI-H460; first compound 1.265 µM): 0.467 | relative viability (NCI-H460; first compound 4 µM): 0.441 | relative viability (NCI-H2126; first compound 0.04 µM): 0.714 | relative viability (NCI-H2126; first compound 0.1265 µM): 0.75 | relative viability (NCI-H2126; first compound 0.4 µM): 0.761 | relative viability (NCI-H2126; first compound 1.265 µM): 0.725 | relative viability (NCI-H2126; first compound 4 µM): 0.742 | relative viability (HARA; first compound 0.04 µM): 0.738 | relative viability (HARA; first compound 0.1265 µM): 0.869 | relative viability (HARA; first compound 0.4 µM): 0.761 | relative viability (HARA; first compound 1.265 µM): 0.831 | relative viability (HARA; first compound 4 µM): 0.808 | relative viability (NCI-H1993; first compound 0.04 µM): 0.581 | relative viability (NCI-H1993; first compound 0.1265 µM): 0.68 | relative viability (NCI-H1993; first compound 0.4 µM): 0.678 | relative viability (NCI-H1993; first compound 1.265 µM): 0.634 | relative viability (NCI-H1993; first compound 4 µM): 0.707 | relative viability (LC-2-ad; first compound 0.04 µM): 0.86 | relative viability (LC-2-ad; first compound 0.1265 µM): 0.847 | relative viability (LC-2-ad; first compound 0.4 µM): 0.988 | relative viability (LC-2-ad; first compound 1.265 µM): 0.825 | relative viability (LC-2-ad; first compound 4 µM): 0.867 | relative viability (NCI-H838; first compound 0.04 µM): 0.975 | relative viability (NCI-H838; first compound 0.1265 µM): 1.07 | relative viability (NCI-H838; first compound 0.4 µM): 1.06 | relative viability (NCI-H838; first compound 1.265 µM): 0.864 | relative viability (NCI-H838; first compound 4 µM): 0.985 | relative viability (HCC-78; first compound 0.04 µM): 0.255 | relative viability (HCC-78; first compound 0.1265 µM): 0.346 | relative viability (HCC-78; first compound 0.4 µM): 0.277 | relative viability (HCC-78; first compound 4 µM): 0.323 | relative viability (EPLC-272H; first compound 0.04 µM): 0.824 | relative viability (EPLC-272H; first compound 0.1265 µM): 0.963 | relative viability (EPLC-272H; first compound 0.4 µM): 1.08 | relative viability (EPLC-272H; first compound 1.265 µM): 1.05 | relative viability (EPLC-272H; first compound 4 µM): 1.06 | relative viability (NCI-H2347; first compound 0.04 µM): 1.05 | relative viability (NCI-H2347; first compound 0.1265 µM): 1.13 | relative viability (NCI-H2347; first compound 0.4 µM): 1.03 | relative viability (NCI-H2347; first compound 1.265 µM): 0.963 | relative viability (NCI-H2347; first compound 4 µM): 1.03 | relative viability (UMC-11; first compound 0.04 µM): 0.913 | relative viability (UMC-11; first compound 0.1265 µM): 0.932 | relative viability (UMC-11; first compound 0.4 µM): 0.816 | relative viability (UMC-11; first compound 1.265 µM): 0.979 | relative viability (UMC-11; first compound 4 µM): 1.07 | relative viability (SW 1573; first compound 0.04 µM): 0.75 | relative viability (SW 1573; first compound 0.1265 µM): 0.598 | relative viability (SW 1573; first compound 0.4 µM): 0.749 | relative viability (SW 1573; first compound 1.265 µM): 0.79 | relative viability (SW 1573; first compound 4 µM): 0.667 | relative viability (PC-14; first compound 0.04 µM): 0.993 | relative viability (PC-14; first compound 0.1265 µM): 0.9 | relative viability (PC-14; first compound 0.4 µM): 0.97 | relative viability (PC-14; first compound 1.265 µM): 0.904 | relative viability (PC-14; first compound 4 µM): 0.866 | relative viability (NCI-H1915; first compound 0.04 µM): 1.03 | relative viability (NCI-H1915; first compound 0.1265 µM): 1.05 | relative viability (NCI-H1915; first compound 0.4 µM): 1.06 | relative viability (NCI-H1915; first compound 1.265 µM): 1.04 | relative viability (NCI-H1915; first compound 4 µM): 1.1 | relative viability (ABC-1; first compound 0.04 µM): 1 | relative viability (ABC-1; first compound 0.1265 µM): 0.936 | relative viability (ABC-1; first compound 0.4 µM): 1.2 | relative viability (ABC-1; first compound 1.265 µM): 0.853 | relative viability (ABC-1; first compound 4 µM): 0.926 | relative viability (COR-L23; first compound 0.04 µM): 0.769 | relative viability (COR-L23; first compound 0.1265 µM): 0.75 | relative viability (COR-L23; first compound 0.4 µM): 1.07 | relative viability (COR-L23; first compound 1.265 µM): 0.665 | relative viability (COR-L23; first compound 4 µM): 0.739 | relative viability (NCI-H1651; first compound 0.04 µM): 0.869 | relative viability (NCI-H1651; first compound 0.1265 µM): 0.863 | relative viability (NCI-H1651; first compound 0.4 µM): 0.968 | relative viability (NCI-H1651; first compound 1.265 µM): 0.894 | relative viability (NCI-H1651; first compound 4 µM): 0.929 | relative viability (HCC-15; first compound 0.04 µM): 0.893 | relative viability (HCC-15; first compound 0.1265 µM): 0.884 | relative viability (HCC-15; first compound 0.4 µM): 0.918 | relative viability (HCC-15; first compound 1.265 µM): 0.916 | relative viability (HCC-15; first compound 4 µM): 0.937 | relative viability (NCI-H358; first compound 0.04 µM): 0.88 | relative viability (NCI-H358; first compound 0.1265 µM): 0.741 | relative viability (NCI-H358; first compound 0.4 µM): 1.09 | relative viability (NCI-H358; first compound 1.265 µM): 0.824 | relative viability (NCI-H358; first compound 4 µM): 0.876
